Assay: photocatalytic hydrogen evolution rate (per 5 mg catalyst); higher = more photocatalytic H2 evolution; extreme values may be limits of the assay
Conditions: catalyst mass (mg): 5; Pt cocatalyst (wt%): 3; sacrificial medium: triethylamine/methanol/water 1:1:1
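Further: aromatic molecules in triethylamine/methanol/water with Pt photoreduced in situ, irradiated 3 h under a 1 sun AM 1.5G solar simulator (350–1000 nm), H2 quantified by headspace gas chromatography; listed molecule itself used as the photocatalyst at 5 mg per vial.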

In order of rising “photocatalytic hydrogen evolution rate” value:
1. c1ccc2c(c1)Cc1ccccc1-2  0 µmol/h
2. C1=CSC(=C2SC=CS2)S1  0 µmol/h
3. C#Cc1ccc(N)cc1  0 µmol/h
4. N#Cc1ccc(Cc2ccc(C#N)cc2)cc1  0 µmol/h
5. O=C(O)c1ccc2cc(C(=O)O)ccc2c1  0 µmol/h
6. c1ccc(P(c2ccccc2)c2ccc3ccccc3c2-c2c(P(c3ccccc3)c3ccccc3)ccc3ccccc23)cc1  0 µmol/h
7. O=C(O)c1c(F)c(F)c(C(=O)O)c(F)c1F  0 µmol/h
8. O=C1c2ccccc2C(=O)c2c(Cl)cccc21  0 µmol/h
9. Cc1c(C)c(Br)c(C)c(C)c1Br  0 µmol/h
10. Cc1cc(-c2ccc(N)c(C)c2)ccc1N  0 µmol/h
11. Brc1cc(Br)cc(-c2ccccc2)c1  0 µmol/h
12. Cc1cc(Br)c(C)cc1Br  0 µmol/h
13. CC1(C)OB(c2cn[nH]c2)OC1(C)C  0 µmol/h
14. Brc1ccc(Br)cc1  0 µmol/h
15. N#Cc1ccncc1Br  0 µmol/h
16. Cc1ccc(C#N)cc1N  0 µmol/h
17. Cc1cc2c(cc1N)S(=O)(=O)c1cc(N)c(C)cc1-2  0 µmol/h
18. BrCc1ccc(CBr)cc1  0 µmol/h
19. N#CCC(=O)c1ccccc1  0 µmol/h
20. O=c1c2ccccc2c2cc3c(=O)c4ccccc4c3cc12  0 µmol/h
21. O=C(O)c1c2ccccc2c(C(=O)O)c2ccccc12  0 µmol/h
22. N#CC(C#N)=c1ccc(=C(C#N)C#N)cc1  0 µmol/h
23. Nc1ccc(-c2cc(-c3ccc(N)cc3)cc(-c3ccc(N)cc3)c2)cc1  0 µmol/h
24. O=C(n1ccnc1)n1ccnc1  0 µmol/h
25. O=C(O)c1ccccc1[N+](=O)[O-]  0 µmol/h
26. OB(O)c1cc(Br)cc(Br)c1  0 µmol/h
27. Nc1nc(N)nc(N)n1  0 µmol/h
28. O=C1C(F)=C(F)C(=O)C(F)=C1F  0 µmol/h
29. O=C(O)c1ccc(-c2ccccc2)cc1  0 µmol/h
30. c1csc(-c2ccc(N(c3ccc(-c4cccs4)cc3)c3ccc(-c4cccs4)cc3)cc2)c1  0 µmol/h
31. Nc1ccc(-c2ccc(N)c([N+](=O)[O-])c2)cc1[N+](=O)[O-]  0 µmol/h
32. Oc1ccc2ccccc2c1-c1c(O)ccc2ccccc12  0 µmol/h
33. O=C1C(=O)c2cc(Br)ccc2-c2ccc(Br)cc21  0 µmol/h
34. Brc1cc2cc3sc(Br)cc3cc2s1  0 µmol/h
35. Nc1ccc(Br)cc1Br  0 µmol/h
36. CNc1ccc(C#N)cc1  0 µmol/h
37. N#CC(C#N)=c1cc(F)c(=C(C#N)C#N)cc1F  0 µmol/h
38. N#Cc1ccc(C#N)cc1  0 µmol/h
39. Brc1ccc2c(c1)C1(c3ccccc3-c3ccccc31)c1cc(Br)ccc1-2  0 µmol/h
40. N#Cc1ccc(N)cc1  0 µmol/h
41. O=C1C=C(O)C(=O)C=C1O  0 µmol/h
42. Oc1cc(Br)c(O)cc1Br  0 µmol/h
43. N#Cc1cccc(-c2ccc(N)cc2)c1  0 µmol/h
44. C#Cc1ccc(C#N)cc1  0 µmol/h
45. Nc1ccc(-c2nnc(-c3ccc(N)cc3)nn2)cc1  0 µmol/h
46. COc1ccc(I)cc1  0 µmol/h
47. N#Cc1c(O)ccc(O)c1C#N  0 µmol/h
48. O=C1C=CC(=O)c2cc3ccccc3cc21  0 µmol/h
49. FC(F)(F)c1cc(Br)ccc1Br  0 µmol/h
50. O=C1C(Cl)=C(Cl)C(=O)C(Cl)=C1Cl  0 µmol/h
51. O=c1c2ccccc2c(=O)c2cc3c(=O)c4ccccc4c(=O)c3cc12  0 µmol/h
52. Cc1c(CBr)c(C)c(CBr)c(C)c1CBr  0 µmol/h
53. N#Cc1cccnc1-c1ncccc1C#N  0 µmol/h
54. COc1cc(C=O)cc(OC)c1O  0 µmol/h
55. Cc1ccc(N(c2ccccc2)c2ccccc2)cc1  0 µmol/h
56. Nc1c(Br)cnc(Cl)c1Br  0 µmol/h
57. O=C1N=C(c2cccs2)c2c(O)[nH]c(-c3cccs3)c21  0 µmol/h
58. COC(=O)c1ccnc(-c2cc(C(=O)OC)ccn2)c1  0 µmol/h
59. C(#Cc1ccccc1)c1ccccc1  0 µmol/h
60. Brc1ccc(OCC2CCCCO2)c(Br)c1 (stereo unspecified)  0 µmol/h
61. O=c1c(Br)c[nH]cc1Br  0.000384 µmol/h
62. Nc1ccccc1C(=O)O  0.00138 µmol/h
63. N#Cc1c(F)c(F)nc(F)c1F  0.00201 µmol/h
64. COC(=O)c1ccc(-c2ccc(C(=O)OC)cc2)cc1  0.00435 µmol/h
65. Brc1ncc(Br)n2ccnc12  0.00675 µmol/h
66. Brc1c2ccccc2c(Br)c2ccccc12  0.0125 µmol/h
67. CC1(C)OB(c2ccc3c4ccc(B5OC(C)(C)C(C)(C)O5)cc4n(-c4ccccc4)c3c2)OC1(C)C  0.0133 µmol/h
68. CC1(C)c2cc(B3OC(C)(C)C(C)(C)O3)ccc2-c2ccc(B3OC(C)(C)C(C)(C)O3)cc21  0.0142 µmol/h
69. COc1cc(C=O)ccc1O  0.0183 µmol/h
70. c1ccc2c(c1)c1ccccc1c1ccccc21  0.022 µmol/h
71. COC(=O)c1cccc(C(=O)OC)n1  0.0266 µmol/h
72. Cc1cncc(C)n1  0.0345 µmol/h
73. N#Cc1ccc(C=O)s1  0.0384 µmol/h
74. O=C(O)Cc1ccc(-c2ccccc2)cc1  0.0393 µmol/h
75. c1ccc(-c2cc(-c3ccccc3)cc(-c3ccccc3)c2)cc1  0.0457 µmol/h
76. CCCc1ccc(C(=O)CC#N)cc1  0.0555 µmol/h
77. c1ccc(-c2nc(-c3ccccc3)nc(-c3ccccc3)n2)cc1  0.0789 µmol/h
78. Nc1ccc(-c2ccc(N)c(O)c2)cc1O  0.104 µmol/h
79. COc1ccnc(-c2cc(OC)ccn2)c1  0.169 µmol/h
80. c1ccc(-c2cccc(-c3ccccn3)n2)nc1  0.17 µmol/h
81. O=C(O)c1ccc(-c2nc(-c3ccc(C(=O)O)cc3)nc(-c3ccc(C(=O)O)cc3)n2)cc1  0.201 µmol/h
82. O=Cc1ncc[nH]1  0.469 µmol/h
83. Brc1ccc(N(c2ccccc2)c2ccc(Br)cc2)cc1  0.729 µmol/h
84. O=Cc1cccc(C(=O)O)c1  1.06 µmol/h
85. O=Cc1ccc(Br)c(Cl)c1  1.45 µmol/h
86. N#Cc1cc(Br)c[nH]c1=O  1.99 µmol/h
87. O=Cc1ccc2c(c1)c1ccccc1n2Cc1ccccc1  2.52 µmol/h
88. O=C1CCc2cccc(O)c21  2.68 µmol/h
89. N#Cc1ccc(C(=O)c2ccc(C#N)cc2)cc1  4.66 µmol/h
90. O=Cc1ccc(-c2ccc(C=O)cc2)cc1  8.89 µmol/h
91. O=C(c1ccccc1)c1cc(C(=O)c2ccccc2)cc(C(=O)c2ccccc2)c1  14.2 µmol/h
